Calls of active or inactive are those of the source. The rule behind the calls is not given here.
Tested on: rodent carcinogenicity bioassays, tumor incidence
Assay: CCRIS carcinogenicity studies
Outline: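 NCI-built, expert-reviewed records of carcinogenicity and related test outcomes (mutagenicity, tumor promotion/inhibition) compiled from published and report sources, historical span 1985-2011, not updated.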

With `C=COC(C)=O` the carcinogen call (Species: MOUSE, Strain/Sex: CRL:CD-1(ICR)BR/FEMALE, Route: INHALATION, Dose: 0, 50, 200, 600 PPM 6 HR/D 5 D/WK FOR 104 WK (STUDY DURATION: 104 WK), Dose: 0, 50, 200, 600 PPM 6 HR/D 5 D/WK FOR 104 WK (STUDY DURATION: 104 WK)) was “inactive; negative”, the carcinogen call (Species: MOUSE, Strain/Sex: CRL:CD-1(ICR)BR/MALE, Route: INHALATION, Dose: 0, 50, 200, 600 PPM 6 HR/D 5 D/WK FOR 104 WK (STUDY DURATION: 104 WK), Dose: 0, 50, 200, 600 PPM 6 HR/D 5 D/WK FOR 104 WK (STUDY DURATION: 104 WK)) was “inactive; negative” and the carcinogen call (Species: MOUSE, Strain/Sex: SWISS/FEMALE, Route: ORAL, Dose: 0, 1000, 5000 PPM IN DRINKING WATER ADMINISTERED FOR DURATION OF STUDY TO OFFSPRING OF MOTHERS EXPOSED TO THE SAME DOSES, Dose: 0, 1000, 5000 PPM IN DRINKING WATER ADMINISTERED FOR DURATION OF STUDY TO OFFSPRING OF MOTHERS EXPOSED TO THE SAME DOSES, Tumor Site: Type of Lesion: ZYMBAL GLAND: CARCINOMA, ORAL CAVITY: SQUAMOUS CELL CARCINOMA, TONGUE: SQUAMOUS CELL CARCINOMA, ESOPHAGUS: SQUAMOUS CELL, Tumor Site: Type of Lesion: ZYMBAL GLAND: CARCINOMA, ORAL CAVITY: SQUAMOUS CELL CARCINOMA, TONGUE: SQUAMOUS CELL CARCINOMA, ESOPHAGUS: SQUAMOUS CELL) was “active; positive”. For the same molecule, the carcinogen call (Species: MOUSE, Strain/Sex: SWISS/FEMALE, Route: ORAL, Dose: 0, 1000, 5000 PPM IN DRINKING WATER FOR DURATION OF STUDY (STUDY DURATION:LIFE SPAN), Dose: 0, 1000, 5000 PPM IN DRINKING WATER FOR DURATION OF STUDY (STUDY DURATION:LIFE SPAN), Tumor Site: Type of Lesion: TONGUE: SQUAMOUS CELL CARCINOMA, ESOPHAGUS: SQUAMOUS CELL CARCINOMA, LUNG: ADENOMA OR ADENOCARCINOMA, UTERUS: TUMOR, Tumor Site: Type of Lesion: TONGUE: SQUAMOUS CELL CARCINOMA, ESOPHAGUS: SQUAMOUS CELL CARCINOMA, LUNG: ADENOMA OR ADENOCARCINOMA, UTERUS: TUMOR) was “active; positive”, the carcinogen call (Species: MOUSE, Strain/Sex: SWISS/MALE, Route: ORAL, Dose: 0, 1000, 5000 PPM IN DRINKING WATER FOR DURATION OF STUDY (STUDY DURATION: LIFE SPAN), Dose: 0, 1000, 5000 PPM IN DRINKING WATER FOR DURATION OF STUDY (STUDY DURATION: LIFE SPAN)) was “inactive; negative” and the carcinogen call (Species: RAT, Strain/Sex: CRL:CD(SD)BR/FEMALE, Route: INHALATION, Dose: 0, 50, 200, 600 PPM 6 HR/D 5 D/WK FOR 104 WK (STUDY DURATION: 104 WK), Dose: 0, 50, 200, 600 PPM 6 HR/D 5 D/WK FOR 104 WK (STUDY DURATION: 104 WK)) was “inactive; negative”. For the same molecule, the carcinogen call (Species: RAT, Strain/Sex: CRL:CD(SD)BR/FEMALE, Route: ORAL, Dose: 0, 200, 1000, 5000 PPM IN DRINKING WATER FOR 104 WK ADMINISTERED TO OFFSPRING OF RATS ADMINISTERED THE SAME DOSES BEGINN, Dose: 0, 200, 1000, 5000 PPM IN DRINKING WATER FOR 104 WK ADMINISTERED TO OFFSPRING OF RATS ADMINISTERED THE SAME DOSES BEGINN) was “inactive; negative”, the carcinogen call (Species: RAT, Strain/Sex: CRL:CD(SD)BR/MALE, Route: INHALATION, Dose: 0, 50, 200, 600 PPM 6 HR/D 5 D/WK FOR 104 WK (STUDY DURATION: 104 WK), Dose: 0, 50, 200, 600 PPM 6 HR/D 5 D/WK FOR 104 WK (STUDY DURATION: 104 WK), Tumor Site: Type of Lesion: NASAL CAVITY: TUMOR) was “active; positive” and the carcinogen call (Species: RAT, Strain/Sex: CRL:CD(SD)BR/MALE, Route: ORAL, Dose: 0, 200, 1000, 5000 PPM IN DRINKING WATER FOR 104 WK ADMINISTERED TO OFFSPRING OF RATS ADMINISTERED THE SAME DOSES BEGINN, Dose: 0, 200, 1000, 5000 PPM IN DRINKING WATER FOR 104 WK ADMINISTERED TO OFFSPRING OF RATS ADMINISTERED THE SAME DOSES BEGINN) was “inactive; negative”. The carcinogen call (Species: RAT, Strain/Sex: F344/FEMALE, Route: ORAL, Dose: 0, 1000, 2500 MG/L IN DRINKING WATER 5 D/WK FOR 100 WK (STUDY DURATION: 130 WK), Dose: 0, 1000, 2500 MG/L IN DRINKING WATER 5 D/WK FOR 100 WK (STUDY DURATION: 130 WK), Tumor Site: Type of Lesion: UTERUS: CARCINOMA, THYROID: C-CELL ADENOMA, LIVER: NEOPLASTIC NODULE, Tumor Site: Type of Lesion: UTERUS: CARCINOMA, THYROID: C-CELL ADENOMA, LIVER: NEOPLASTIC NODULE) was “active; positive”, the carcinogen call (Species: RAT, Strain/Sex: F344/MALE, Route: ORAL, Dose: 0, 1000, 2500 MG/L IN DRINKING WATER 5 D/WK FOR 100 WK (STUDY DURATION: 130 WK), Dose: 0, 1000, 2500 MG/L IN DRINKING WATER 5 D/WK FOR 100 WK (STUDY DURATION: 130 WK)) was “inactive; negative” and the carcinogen call (Species: SWISS/MALE, Strain/Sex: ORAL, Route: ORAL, Dose: 0, 1000, 5000 PPM IN DRINKING WATER ADMINISTERED FOR DURATION OF STUDY TO OFFSPRING OF MOTHERS EXPOSED TO THE SAME DOSES, Dose: 0, 1000, 5000 PPM IN DRINKING WATER ADMINISTERED FOR DURATION OF STUDY TO OFFSPRING OF MOTHERS EXPOSED TO THE SAME DOSES, Tumor Site: Type of Lesion: ZYMBAL GLAND: CARCINOMA, ORAL CAVITY: SQUAMOUS CELL CARCINOMA, TONGUE: SQUAMOUS CELL CARCINOMA, ESOPHAGUS: SQUAMOUS CELL, Tumor Site: Type of Lesion: ZYMBAL GLAND: CARCINOMA, ORAL CAVITY: SQUAMOUS CELL CARCINOMA, TONGUE: SQUAMOUS CELL CARCINOMA, ESOPHAGUS: SQUAMOUS CELL) was “active; positive”.
`C=C(C)C#N` was tested, and the carcinogen call (Species: MOUSE, Strain/Sex: B6C3F1/FEMALE, Route: GAVAGE, Dose: 0, 1.5, 3, 6 MG/KG 5 D/WK FOR 104-105 WK (STUDY DURATION: 104-105 WK), Dose: 0, 1.5, 3, 6 MG/KG 5 D/WK FOR 104-105 WK (STUDY DURATION: 104-105 WK)) was “inactive; negative”, the carcinogen call (Species: MOUSE, Strain/Sex: B6C3F1/MALE, Route: GAVAGE, Dose: 0, 1.5, 3, 6 MG/KG 5 D/WK FOR 104-105 WK (STUDY DURATION: 104-105 WK), Dose: 0, 1.5, 3, 6 MG/KG 5 D/WK FOR 104-105 WK (STUDY DURATION: 104-105 WK)) was “inactive; negative” and the carcinogen call (Species: RAT, Strain/Sex: F344/FEMALE, Route: GAVAGE, Dose: 0, 3, 10, 30 MG/KG 5 D/WK FOR 104-105 WK (STUDY DURATION: 104-105 WK), Dose: 0, 3, 10, 30 MG/KG 5 D/WK FOR 104-105 WK (STUDY DURATION: 104-105 WK)) was “inactive; negative”. The carcinogen call (Species: RAT, Strain/Sex: F344/MALE, Route: GAVAGE, Dose: 0, 3, 10, 30 MG/KG 5 D/WK FOR 104-105 WK (STUDY DURATION: 104-105 WK), Dose: 0, 3, 10, 30 MG/KG 5 D/WK FOR 104-105 WK (STUDY DURATION: 104-105 WK)) was “inactive; negative”.
For `[Si]`, the carcinogen call (Species: RAT, Strain/Sex: F344/FEMALE, Route: SUBCUTANEOUS IMPLANT, Dose: 10 X 20 X 0.3 MM SHEETS IMPLANTED INTO 2 SITES IN LATERAL ABDOMINAL REGION AND 1 SITE ON THE BACK (STUDY DURATION: 741 D, Tumor Site: Type of Lesion: IMPLANT SITE: MALIGNANT HISTIOCYTOMA) was “active; positive”.
`N#[N+]c1ccc(O)cc1` was tested, and the carcinogen call (Species: MOUSE, Strain/Sex: SWISS/FEMALE, Route: SUBCUTANEOUS, Dose: 0, 2 UG 1/WK FOR 36 WK (STUDY DURATION: 120 WK), Tumor Site: Type of Lesion: SUBCUTANEOUS TISSUE: TUMOR) was “active; positive”, the carcinogen call (Species: MOUSE, Strain/Sex: SWISS/FEMALE, Route: SUBCUTANEOUS, Dose: 0, 10 UG 1/WK FOR 2 WK (STUDY DURATION: 130 WK)) was “inactive; negative” and the carcinogen call (Species: MOUSE, Strain/Sex: SWISS/MALE, Route: SUBCUTANEOUS, Dose: 0, 2 UG 1/WK FOR 36 WK (STUDY DURATION: 110 WK), Tumor Site: Type of Lesion: SUBCUTANEOUS TISSUE: TUMOR) was “active; positive”. For the same molecule, the carcinogen call (Species: MOUSE, Strain/Sex: SWISS/MALE, Route: SUBCUTANEOUS, Dose: 0, 10 UG 1/WK FOR 2 WK (STUDY DURATION: 130 WK)) was “inactive; negative”.
In the case of `CCCNC(=O)NS(=O)(=O)c1ccc(Cl)cc1`, the carcinogen call (Species: MOUSE, Strain/Sex: B6C3F1/FEMALE, Route: ORAL, Dose: 0, 3317, 6635 PPM IN DIET, Dose: 0, 3317, 6635 PPM IN DIET) is reported as “inactive; negative”, the carcinogen call (Species: MOUSE, Strain/Sex: B6C3F1/MALE, Route: ORAL, Dose: 0, 3317, 6635 PPM IN DIET, Dose: 0, 3317, 6635 PPM IN DIET) is reported as “inactive; negative” and the carcinogen call (Species: RAT, Strain/Sex: F344/FEMALE, Route: ORAL, Dose: 0, 3000, 6000 PPM IN DIET, Dose: 0, 3000, 6000 PPM IN DIET) is reported as “inactive; negative”. For the same molecule, the carcinogen call (Species: RAT, Strain/Sex: F344/MALE, Route: ORAL, Dose: 0, 3000, 6000 PPM IN DIET, Dose: 0, 3000, 6000 PPM IN DIET) was “inactive; negative”.

— PubChem BioAssay AID1259411 (Chemical Carcinogenesis Research Information System (CCRIS), 2018)
